Like-named read-outs stand apart in the source and are kept apart here.
How the values were obtained:
[1] = test system: Mutant Type (HGPRT-) clones (6TG^R); assay: cells; conditions: Homo sapiens
Procedure: Cell survival was measured by a soft-agar plating procedure that was originally devised for mouse myeloma cells and latter extended to human lymphoblasts. […] For plating efficiencies, confluent feeder layers were used of a fibroblast strain derived from a patient afflicted with the Lesch-Nyhan syndrome. […] The feeder layer was overlayed with a separation layer formed from 2.5 ml of RPMI 1640 medium containing 0.25% agarose (M.C.I. Biomedical), which was allowed to gel at room temperature (10 min). The cells were suspended in 2.5 ml of 0.25% agarose-RPMI 1640 layered over the separator layer; this layer was then allowed to gel before the plates were incubated at 37° in humidified air containing 5% CO2. On the following day, 1.0 ml of RPMI 1640 medium was placed on each plate, and another 1.0 ml was added 6 days later. Although microscopic colonies could be counted on day 7, 14 days were allowed in order to permit an increase in colony size to about 0.4 mm because this permitted the use of an automatic colony counter (Artek Systems). Cell counts in suspension were accomplished by counting samples on an electronic particle counter (Coulter Electronics).
HGPRT activity and plating efficiencies as a function of 6TG concentration for clones sensitive (6TG^S) or resistant (6TG^R) to 10 μg/ml of 6TG were determined.
Plating efficiencies were determined following the procedure of Example 1.

[2] = test system: human lymphoblast line (MIT-2)
[3] = in vitro; conditions: human, mit-2 lymphoblasts
[4] = Stability of MNU solution (electronic absorption spectra); assay type: physicochemical; conditions: PBS, pH 7.2, kept cold
Procedure: Crystalline form methylnitrosourea (MNU) was dessicated and preweighed into aliquots. The quantitative electronic absorption spectra of one of these preweighed aliquots dissolved in phosphate buffered saline (PBS), pH7.2, was determined and found to remain stable for more than 60 minutes when kept cold. Fresh solutions were prepared 10 minutes prior to dosing by dissolving preweighed aliquots in PBS and filter-sterilizing the solutions. They were then used immediately for dosing cultures and simultaneously characterized by electronic absorbance spectra.

[5] = test system: 6TG^S and 6TG^R clones; assay: Dose-dependent sensitivity to MNU of 6TG^R clones compared with wild-type (6TG^S)
[6] = test system: HGPRT; conditions: linear with time over 60 min, 5 × 10^6 cells/ml in the sonicate
Procedure: HGPRT activity was determined using a modification of a published technique.
The reaction was quenched by addition of 0.025 ml of 50 mM EDTA at 0°. DE-81 2.5-cm disks (DEAE cellulose; Whatman) were spotted with 0.025 ml of the quenched reaction mixture and allowed to dry at 25°. Disks were rinsed at 25° first with 40 ml of 1 mM ammonium formate and then with 20 ml of ethanol in a standard filter-holding chimney (Millipore). Disks were dried for 10 min at 60° in scintillation vials, to which 15 ml of Aquasol (New England Nuclear) were added after the vials had cooled. The vials were then counted on a Packard 2002 scintillation counter. With this system, the overall efficiency of counting phosphorylated purines bound to DE-81 filters was 4.10± 0.03% (S.E., n = 7).

Compound Nc1nc2nc[nH]c2c(=S)[nH]1 [6TG, 6-thioguanine] has a viability at 5 µg/mL ([1]; P1(0.5), read-out: RELATIVE SURVIVING FRACTION, clone P10, 5 μg/ml 6TG) of 81%, a viability at 5 µg/mL ([1]; read-out: RELATIVE SURVIVING FRACTION, clone B2, 5 μg/ml 6TG) of 94% and a viability at 10 µg/mL ([1]; read-out: RELATIVE SURVIVING FRACTION, clone B2, 10 μg/ml 6TG) of 100%. For the same compound, the viability at 20 µg/mL ([1]; read-out: RELATIVE SURVIVING FRACTION, clone B2, 20 μg/ml 6TG) was 71%, the viability at 5 µg/mL ([1]; read-out: RELATIVE SURVIVING FRACTION, clone B4, 5 μg/ml 6TG) was 160% and the viability at 10 µg/mL ([1]; read-out: RELATIVE SURVIVING FRACTION, clone B4, 10 μg/ml 6TG) was 150%. The viability at 20 µg/mL ([1]; read-out: RELATIVE SURVIVING FRACTION, clone B4, 20 μg/ml 6TG) was 110%, the viability at 5 µg/mL ([1]; read-out: RELATIVE SURVIVING FRACTION, clone B6, 5 μg/ml 6TG) was 110% and the viability at 10 µg/mL ([1]; read-out: RELATIVE SURVIVING FRACTION, clone B6, 10 μg/ml 6TG) was 82%. The viability at 20 µg/mL ([1]; read-out: RELATIVE SURVIVING FRACTION, clone B6, 20 μg/ml 6TG) was 76%, the viability at 5 µg/mL ([1]; read-out: RELATIVE SURVIVING FRACTION, clone B7, 5 μg/ml 6TG) was 120% and the viability at 10 µg/mL ([1]; read-out: RELATIVE SURVIVING FRACTION, clone B7, 10 μg/ml 6TG) was 66%. The viability at 20 µg/mL ([1]; read-out: RELATIVE SURVIVING FRACTION, clone B7, 20 μg/ml 6TG) was 57%, the viability at 5 µg/mL ([1]; read-out: RELATIVE SURVIVING FRACTION, clone B8, 5 μg/ml 6TG) was 100% and the viability at 10 µg/mL ([1]; read-out: RELATIVE SURVIVING FRACTION, clone B8, 10 μg/ml 6TG) was 93%. For the same compound, the viability at 20 µg/mL ([1]; read-out: RELATIVE SURVIVING FRACTION, clone B8, 20 μg/ml 6TG) was 80%, the viability at 5 µg/mL ([1]; read-out: RELATIVE SURVIVING FRACTION, clone B9, 5 μg/ml 6TG) was 110% and the viability at 10 µg/mL ([1]; read-out: RELATIVE SURVIVING FRACTION, clone B9, 10 μg/ml 6TG) was 120%. For the same compound, the viability at 20 µg/mL ([1]; read-out: RELATIVE SURVIVING FRACTION, clone B9, 20 μg/ml 6TG) was 68%, the viability at 5 µg/mL ([1]; read-out: RELATIVE SURVIVING FRACTION, clone B13, 5 μg/ml 6TG) was 86% and the viability at 10 µg/mL ([1]; read-out: RELATIVE SURVIVING FRACTION, clone B13, 10 μg/ml 6TG) was 100%. The viability at 20 µg/mL ([1]; read-out: RELATIVE SURVIVING FRACTION, clone B13, 20 μg/ml 6TG) was 45%, the viability at 5 µg/mL ([1]; read-out: RELATIVE SURVIVING FRACTION, clone B15, 5 μg/ml 6TG) was 71% and the viability at 10 µg/mL ([1]; read-out: RELATIVE SURVIVING FRACTION, clone B15, 10 μg/ml 6TG) was 87%. For the same compound, the viability at 20 µg/mL ([1]; read-out: RELATIVE SURVIVING FRACTION, clone B15, 20 μg/ml 6TG) was 37%, the viability at 5 µg/mL ([1]; read-out: RELATIVE SURVIVING FRACTION, clone B17, 5 μg/ml 6TG) was 110% and the viability at 10 µg/mL ([1]; read-out: RELATIVE SURVIVING FRACTION, clone B17, 10 μg/ml 6TG) was 140%. It also gave a viability at 20 µg/mL ([1]; read-out: RELATIVE SURVIVING FRACTION, clone B17, 20 μg/ml 6TG) of 160%, a viability at 5 µg/mL ([1]; read-out: RELATIVE SURVIVING FRACTION, clone B20, 5 μg/ml 6TG) of 90% and a viability at 10 µg/mL ([1]; read-out: RELATIVE SURVIVING FRACTION, clone B20, 10 μg/ml 6TG) of 83%. For the same compound, the viability at 20 µg/mL ([1]; read-out: RELATIVE SURVIVING FRACTION, clone B20, 20 μg/ml 6TG) was 51%, the viability at 10 µg/mL ([1]; read-out: RELATIVE SURVIVING FRACTION, clone D3, 10 μg/ml 6TG) was 71% and the viability at 20 µg/mL ([1]; read-out: RELATIVE SURVIVING FRACTION, clone D3, 20 μg/ml 6TG) was 73%. It also gave a viability at 5 µg/mL ([1]; read-out: RELATIVE SURVIVING FRACTION, clone P1, 5 μg/ml 6TG) of 112%, a viability at 10 µg/mL ([1]; read-out: RELATIVE SURVIVING FRACTION, clone P1, 10 μg/ml 6TG) of 75% and a viability at 20 µg/mL ([1]; read-out: RELATIVE SURVIVING FRACTION, clone P1, 20 μg/ml 6TG) of 86%. It also gave a viability at 5 µg/mL ([1]; read-out: RELATIVE SURVIVING FRACTION, clone P2, 5 μg/ml 6TG) of 173%, a viability at 10 µg/mL ([1]; read-out: RELATIVE SURVIVING FRACTION, clone P2, 10 μg/ml 6TG) of 121% and a viability at 20 µg/mL ([1]; read-out: RELATIVE SURVIVING FRACTION, clone P2, 20 μg/ml 6TG) of 94%. The viability at 5 µg/mL ([1]; read-out: RELATIVE SURVIVING FRACTION, clone P6, 5 μg/ml 6TG) was 103%, the viability at 10 µg/mL ([1]; read-out: RELATIVE SURVIVING FRACTION, clone P6, 10 μg/ml 6TG) was 97% and the viability at 20 µg/mL ([1]; read-out: RELATIVE SURVIVING FRACTION, clone P6, 20 μg/ml 6TG) was 67%. It also gave a viability at 5 µg/mL ([1]; read-out: RELATIVE SURVIVING FRACTION, clone P7, 5 μg/ml 6TG) of 80%, a viability at 10 µg/mL ([1]; read-out: RELATIVE SURVIVING FRACTION, clone P7, 10 μg/ml 6TG) of 60% and a viability at 20 µg/mL ([1]; read-out: RELATIVE SURVIVING FRACTION, clone P7, 20 μg/ml 6TG) of 54%. For the same compound, the viability at 5 µg/mL ([1]; read-out: RELATIVE SURVIVING FRACTION, clone P9, 5 μg/ml 6TG) was 86%, the viability at 10 µg/mL ([1]; read-out: RELATIVE SURVIVING FRACTION, clone P9, 10 μg/ml 6TG) was 45% and the viability at 20 µg/mL ([1]; read-out: RELATIVE SURVIVING FRACTION, clone P9, 20 μg/ml 6TG) was 22%. The viability at 10 µg/mL ([1]; read-out: RELATIVE SURVIVING FRACTION, clone P10, 10 μg/ml 6TG) was 41%, the viability at 20 µg/mL ([1]; read-out: RELATIVE SURVIVING FRACTION, clone P10, 20 μg/ml 6TG) was 30% and the viability at 5 µg/mL ([1]; read-out: RELATIVE SURVIVING FRACTION, clone P11, 5 μg/ml 6TG) was 100%. It also gave a viability at 10 µg/mL ([1]; read-out: RELATIVE SURVIVING FRACTION, clone P11, 10 μg/ml 6TG) of 55%, a viability at 20 µg/mL ([1]; read-out: RELATIVE SURVIVING FRACTION, clone P11, 20 μg/ml 6TG) of 24% and a viability at 5 µg/mL ([1]; read-out: RELATIVE SURVIVING FRACTION, clone P15, 5 μg/ml 6TG) of 87%. It also gave a viability at 10 µg/mL ([1]; read-out: RELATIVE SURVIVING FRACTION, clone P15, 10 μg/ml 6TG) of 58%, a viability at 20 µg/mL ([1]; read-out: RELATIVE SURVIVING FRACTION, clone P15, 20 μg/ml 6TG) of 27% and a viability at 5 µg/mL ([1]; read-out: RELATIVE SURVIVING FRACTION, clone P18, 5 μg/ml 6TG) of 55%. For the same compound, the viability at 10 µg/mL ([1]; read-out: RELATIVE SURVIVING FRACTION, clone P18, 10 μg/ml 6TG) was 62% and the viability at 20 µg/mL ([1]; read-out: RELATIVE SURVIVING FRACTION, clone P18, 20 μg/ml 6TG) was 45%.
For CCOS(C)(=O)=O [EMS, ethyl methane sulphonate], the “EST. INITIAL GROWTH DELAY” value [2] was 0 and the viability at 24 h [3] was 0.12%.
With CN(N=O)C(N)=O [MNU, methylnitrosourea] the “stability of electronic absorption spectrum in solution” value [4] was “more than 60 minutes”, the “EST. INITIAL GROWTH DELAY” value [2] was 0 and the “absolute plating efficiency in the absence of 6TG, stable maximum” value [2] was “about 0.28 clones observed/particle plated”. The “population increase before the culture's apparent cessation of growth” value [2] was “about 2.25 times”, the viability at 24 h [3] was 0.1% and the “survival fraction of one 6TG^R clone” value ([5]; 1 6TG^R clone, relatively high concentration of MNU) was “high survival fraction”. For the same compound, the “MNU toxicity, 6TG^S versus 6TG^R clones” value ([5]; 4 6TG^S and 4 6TG^R clones) was “the average behavior of the two groups was virtually identical”.
With O=c1[nH]cnc2nc[nH]c12 [hypoxanthine] the phosphoribosylation velocity [6] was 6.4 ± 0.4 mmoles of hypoxanthine/min.
